In patent publication US20240366624A1, “METHODS AND COMPOSITIONS FOR TREATING THROMBOTIC DISEASE” (Washington University, priority 2023, published 2024):
Entries after “also recorded” stand apart in the source; their conditions may differ. Where a SMILES comes first, the peptide text is derived from it. Bridges are numbered along the chain shown (N, C = ends). [ ]: non-standard residue; d: D form. hArg = N=C(N)NCCCC[C@H](N)C(=O)O; Mpa = O=C(O)CCS

Key:
WT (C57BL/6) mice = experiment: Intravital microscopy, laser-induced cremaster arteriolar injury, WT mice; assay type: in vivo, mouse; details: iv 5 μg/g BW
Protocol: Intravital microscopy was performed in a mouse model of laser-induced cremaster arteriolar injury as previously described. WT (C57BL/6), littermate WT control, and CKO and KO male mice (8-10 weeks old) were anesthetized with intraperitoneal injection of ketamine and xylazine. The cremaster muscle was exteriorized and superfused with 37° C. bicarbonate-buffered saline throughout the experiment. Arteriolar wall injury was induced by laser ablation (Photonics Instruments) as previously described. Multiple thrombi were generated in at least 3 to 4 different arterioles of 1 mouse, with new thrombi formed upstream of earlier thrombi to minimize any contribution from thrombi generated earlier in the mouse. Platelets and fibrin were visualized by infusion of DyLight 649-conjugated anti-CD42c (0.2 μg/g body weight [BW]) and Alexa Fluor 488-conjugated anti-fibrin (0.2 μg/g BW) antibodies, respectively. To detect extracellular Ero1α, Alexa Fluor 488-conjugated rabbit IgG or nonblocking anti-ERO1α antibodies (0.3 μg/g BW) were injected into WT (C57BL/6), WT control, Ero1α KO, and Ero1α CKO mice. In some experiments, wtERO1α or activity-null ERO1α-Cys94Ser (mutant ERO1α [mERO1α]; 4 μg/g BW) was infused into Ero1α KO mice before imaging. To test the effect of ERO1α inhibitors or blocking anti-ERO1α antibodies, WT (C57BL/6) mice were treated with intravenous injection of vehicle control, eptifibatide (5 μg/g BW), B12-5 (5 μg/g BW), isotype control IgGs, anti-ERO1α (15E9, 1-3 μg/g BW), or anti-PDI (BD34, 3 μg/g BW) 3 minutes before treatment with the anti-CD42c and anti-fibrin antibodies. The same dose of eptifibatide was injected every 20 minutes to maintain the inhibitory effect. […] Fluorescence and bright-field images were captured in 6 to 10 different cremaster arterioles with a diameter of 30 to 45 μm in each mouse and recorded using either an Olympus BX61W microscope with a 60×1.0 salt water immersion objective or a Zeiss Axio Examiner Z1 microscope system with a Yokogawa confocal spinning disk (CSU-W1) equipped with 4 stack laser system (405-, 488-, 561-, and 637-nm wavelengths). Images were collected with a high-speed, high-resolution camera (2304×2304 pixel format; ORCA-Fusion BT sCMOS, Hamamatsu). Time 0 was set to when image capture began on each vessel. The data were analyzed using Slidebook (version 6.0; Intelligent Imaging Innovations). Due to the significant variation between vessels in the same mouse, the result from each vessel was counted as an individual value. Representative images were chosen that most closely resemble the mean values in the quantifications.

WT mice = experiment: FeCl3-induced carotid arterial thrombosis; assay type: in vivo, mouse; details: 5 μg/g BW, vs vehicle control
Protocol: FIG. […]) is an exemplary embodiment of B12-5 having an antithrombotic effect without prolonging tail bleeding times in mice in accordance with the present disclosure. FIG. […]): Ex vivo effects of B12-5. Wild type (WT; […] One hour later, blood was drawn, followed by isolating platelets. P-selectin exposure (FIG. 19A) and αIIbβ3 integrin activation (FIG. 19B) were assessed in flow cytometry. FIG. 19C: Platelet aggregation was measured after treatment with 0.025 U/mL thrombin. The data represent the mean±SD (n=4). FIG. 19D: The plasma levels of B12-5 were analyzed by liquid chromatography-tandem mass spectrometry (LC-MS/MS) after intravenous injection of the compound (5 μg/g BW) into WT mice and quantified by comparison with a standard curve of B12-5 (mean±SD, n=3). FIG. 19E and FIG. 19F: After laser-induced cremaster arteriolar injury, intravital microscopy was conducted with WT mice pretreated with intravenous injection of saline, eptifibatide (5 μg/g BW), vehicle, or B12-5 (5 μg/g BW). The median integrated fluorescence intensities of anti-CD42c (F platelet) and anti-fibrin (F fibrin) antibodies (n=37-42 arterioles in 6 mice per group). Quantification of the antibody signal at a different time point after laser injury. FIG. 19G: Comparison of B12-5 (5 μg/g BW) with eptifibatide (5 μg/g BW) and their respective controls in inhibiting FeCl3-induced carotid artery thrombosis in WT mice. FIG. 19H and FIG. 19I: WT mice were treated with intravenous injection of vehicle control, eptifibatide (5 μg/g BW), or B12-5 (5 μg/g BW). Thirty minutes later, tail bleeding times and Hb contents were measured after amputation of the tail tip. […] Twenty-three hours later, neurological deficits were assessed by the Bederson score and grip test, and infarct volume was measured as described in Methods. […] Twenty-three hours later, the neurological deficit and infarct volume were measured as described above. […] P values determined by unpaired Student t test (FIG. […]), FIG. 19K, and FIG. 19O) or Mann-Whitney U test (FIG. 19(E-1), FIG. 19L, FIG. 19M, FIG. 19P, and FIG. 19Q). […]

Q: For N=C(N)NCCCC[C@@H]1NC(=O)CCSSC[C@@H](C(N)=O)NC(=O)[C@@H]2CCCN2C(=O)[C@H](Cc2c[nH]c3ccccc23)NC(=O)[C@H](CC(=O)O)NC(=O)CNC1=O [eptifibatide, reference compound] ([Mpa][hArg]GDWPC-NH2; disulfide 1-7), which fibrin generation (WT (C57BL/6) mice) is on record?
A: without reducing; also recorded: without affecting

Q: What about the platelet thrombus formation (WT (C57BL/6) mice) of the same compound?
A: inhibit

Q: And the time to occlusion (WT mice)?
A: significantly prolonged
